Values of other authors as cited in patent US20070190036A1, “Microencapsulation of pancreatic islets within a thin coat of glucagon-like peptide-1 functionalized poly(ethylene glycol)” (priority 2006, published 2007).

Tested on: rat pancreatic islets
Conditions: isolated rat pancreatic islets

Q: Which “concentration at which insulinotropic activity began” value does the source give for glucagon-like peptide 1 [GLP-1] here?
A: 2.5 nM

Q: What about the “concentration at which insulinotropic activity was saturated” value of the same substance?
A: 250 nM
